Measured values taken from US20160229847A1, “NOVEL BICYCLIC PYRIDINONES AS GAMMA-SECRETASE MODULATORS” (PFIZER INC., priority 2013, published 2016).
Where a name gives a salt, the structure may show the parent alone. Read-outs that look alike come from different tables or passages of the source.

Molecular target: γ-secretase (Cricetulus griseus, UniProt G3HNF2)
Experiment: Cell-Based γ-Secretase Assay with ELISA Readout (production of amyloid beta protein Aβ(1-42))
Conditions: human WT-APP overexpressing CHO cells, ~24 h incubation, Aβ(1-42) ELISA
[1] = read-out: Aβ 42B IC50 (nM) (Geometric Mean of 2-5 Determinations), Table 5, geometric mean of 2-5 determinations

Procedure: The ability of compounds to modulate production of amyloid beta protein Aβ(1-42) was determined using human WT-APP overexpressing CHO cells. Cells were plated at 22,000 cells/100 μL well in 96 well tissue culture treated, clear plates (Falcon) in DMEM/F12 based medium and incubated for 24 h at 37° C. […] Compounds were added in fresh medium to achieve 1% final DMSO. Appropriate vehicle or inhibitor controls were added into control wells individually to obtain minimum or maximum inhibition values, respectively, for the assay signal window before the plates were incubated for ˜24 h at 37° C. This procedure produces conditioned media in each well which is tested for Aβ(1-42) levels in the ELISA detection step described next. The remaining cell cultures in each well are also tested for cell toxicity as described below.
Coating of ELISA assay plates was initiated by addition of 50 μL/well of an in-house Aβ(1-42) specific antibody at (3 μg/mL) in 0.1 M NaHCO3 (pH 9.0) into black 384-well Maxisorp® plates (Nunc) and incubated overnight at 4° C. The capture antibody was then aspirated from the ELISA assay plates and plates were washed either 2×100 uL with a Matrical Squirt plate washer, or 3×90 uL with a Thermo Combi, using Wash Buffer (Dulbecco's PBS, 0.05% Tween 20). 90 μL/well of Blocking Buffer (Dulbecco's PBS, 1.0% BSA (Sigma A7030) was then added to plates. Ambient temperature incubation was allowed to proceed for a minimum of 2 h. Blocking buffer was then removed and 20 μL/well Assay Buffer (Dulbecco's PBS, 1.0% BSA (Sigma A7030), 0.05% Tween 20) was then added. At this point, 35 uL (40 uL prior to August, 2012) (in duplicate) of experimental conditioned media (described above) were transferred into wells of the blocked ELISA plates containing the capture antibody, followed by overnight incubation at 4° C. Cell toxicity was also measured in the corresponding remaining cells after removal of the conditioned media for the Aβ(1-42) assay by a colorimetric cell proliferation assay (CellTiter 96® AQueous One Solution Cell Proliferation Assay, Promega) according to the manufacturer's instructions.
After overnight incubation of the ELISA assay plates at 4° C., unbound Aβ peptides were removed via either 2×100 uL washes with a Matrical Squirt plate washer, or 3×90 uL washes with a Thermo Combi, using Wash Buffer. Europium (Eu) labeled (custom labeled, PerkinElmer) Aβ(1-16) 6e10 Monoclonal Antibody (Covance #SIG-39320) was added, (50 μL/well Eu-6e10 @ 1:10,000, 20 uM EDTA) in Assay Buffer. […] Following 30 to 60 min ambient temperature incubation, the plates were read on an EnVision plate reader (PerkinElmer) using standard DELFIA TRF settings. […]

Molecule | IC50 [1] | IC50 (Table 5, footnote 1: single determination, read-out: Aβ 42B IC50 (nM), IC50 value is from a single determination)
Cc1cn(-c2ccc3n(c2=O)CCN(CC2(c4ccc(Cl)cc4)CC2)C3=O)cn1 [Example 17, 2-{[1-(4-chlorophenyl)cyclopropyl]methyl}-7-(4-methyl-1H-imidazol-1-yl)-3,4-dihydro-2H-pyrido[1,2-a]pyrazine-1,6-dione, trifluoroacetate salt] | 410 nM | 
2-[(7-chloro-6,8-dimethoxyquinolin-2- yl)methyl]-7-(4-methyl-1H-imidazol- 1-yl)-3,4-dihydro-2H-pyrido[1,2- a]pyrazine-1,6-dione [Example 87] | 150 nM | 
2-[(4′-fluorobiphenyl-3-yl)methyl]- 7-(4-methyl-1H-imidazol-1-yl)- 3,4-dihydro-2H-pyrido[1,2- a]pyrazine-1,6-dione, formate salt [Example 12] |  | 83.4 nM
Cc1cn(-c2ccc3n(c2=O)CCN(Cc2nc(C4(c5ccc(Cl)cc5)CCC4)no2)C3=O)cn1 [Example 18, 2-({3-[1-(4-chlorophenyl)cyclobutyl]-1,2,4-oxadiazol-5-yl}methyl)-7-(4-methyl-1H-imidazol-1-yl)-3,4-dihydro-2H-pyrido[1,2-a]pyrazine-1,6-dione, trifluoroacetate salt] | 169 nM | 
